# Test results reported in ChEMBL document CHEMBL5726731, “Substituted benzenesulfonamides as sodium channel blockers” (2019).
# Assay: (§1) Measurement of Sodium Ion Channel Blocking Effects: In order to measure the sodium ion channel blocking effect, an IonFlux16 Auto patch clamp system (Fluxion, Inc.) and a plate for exclusive use were used. The cells were distributed in an extracellular solution (4 mM KCl, 138 mM NaCl, 1 mM MgCl2, 1.8 mM CaCl2, 5.6 mM glucose, 10 mM HEPES, pH 7.45), and then dispensed in the specified region of the plate, and each of the prepared compound samples was diluted at various concentrations, and then dispensed in the specified region of the plate.
# Format: cell-based
row,SMILES,IC50
1,CNCCN(C)c1cc(C(F)(F)F)ccc1Nc1cc(F)c(S(=O)(=O)Nc2ncc(F)cn2)cc1Cl,> 10000 nM
2,C[C@@H]1CNCCN1c1cc(Cl)ccc1Nc1cc(F)c(S(=O)(=O)Nc2cscn2)cc1Cl,6720 nM
3,CNC1CCN(c2c(F)cccc2Nc2cc(F)c(S(=O)(=O)Nc3cscn3)cc2Cl)C1 (stereo not drawn),> 10000 nM
4,CNCCN(C)c1cc(C#N)ccc1Nc1cc(F)c(S(=O)(=O)Nc2cscn2)cc1Cl,> 10000 nM
5,CN[C@@H]1CCCN(c2cc(F)ccc2Nc2ccc(S(=O)(=O)Nc3cscn3)cc2Cl)C1,> 10000 nM
6,CNC1CCN(c2cc(F)ccc2Nc2cc(F)c(S(=O)(=O)Nc3cc(C)on3)cc2Cl)C1 (stereo not drawn),> 10000 nM
7,CNCCN(C)c1cc(C#N)ccc1Nc1cc(F)c(S(=O)(=O)Nc2ncc(F)cn2)cc1Cl,> 10000 nM
8,CN1CCN(c2cc(OC(F)(F)F)ccc2Nc2cc(F)c(S(=O)(=O)Nc3cscn3)cc2Cl)CC1,> 10000 nM
9,CNC1CCN(c2ccccc2Nc2ccc(S(=O)(=O)Nc3cscn3)c(F)c2)C1 (stereo not drawn),> 10000 nM
10,CNC1CCN(c2cc(C(F)(F)F)ccc2Nc2ccc(S(=O)(=O)Nc3cscn3)c(F)c2)C1 (stereo not drawn),> 10000 nM
11,CNC1CCN(c2cc(F)ccc2Nc2cc(F)c(S(=O)(=O)Nc3cscn3)cc2Cl)C1 (stereo not drawn),> 10000 nM
12,CNC1CCN(c2ccccc2Nc2ccc(S(=O)(=O)Nc3cscn3)cc2Cl)C1 (stereo not drawn),> 10000 nM
13,CNC1CCN(c2cc(F)ccc2Nc2ccc(S(=O)(=O)Nc3cscn3)cc2)C1 (stereo not drawn),> 10000 nM
14,CNC1CCN(c2cc(F)ccc2Nc2cc(F)c(S(=O)(=O)Nc3cnccn3)cc2Cl)C1 (stereo not drawn),> 10000 nM
15,CNCCN(C)c1ccccc1Nc1cc(F)c(S(=O)(=O)Nc2cscn2)cc1Cl,> 10000 nM
16,C[C@H]1CN(c2cc(Cl)ccc2Nc2cc(F)c(S(=O)(=O)Nc3cscn3)cc2Cl)CCN1,> 10000 nM
17,CNCCN(C)c1cc(F)ccc1Nc1cc(F)c(S(=O)(=O)Nc2ncc(F)s2)cc1Cl,1830 nM
18,CN[C@@H]1CCCN(c2cc(F)ccc2Nc2cc(F)c(S(=O)(=O)Nc3cscn3)cc2Cl)C1,> 10000 nM
19,CNCCN(C)c1cc(F)ccc1Nc1cc(F)c(S(=O)(=O)Nc2ccccn2)cc1Cl,> 10000 nM
20,CNCCN(C)c1cc(F)ccc1Nc1cc(F)c(S(=O)(=O)Nc2nccs2)cc1Cl,> 10000 nM
21,CNCCN(C)c1ccccc1Nc1cc(F)c(S(=O)(=O)Nc2ncc(F)cn2)cc1Cl,> 10000 nM
22,CNC1CCN(c2cc(F)ccc2Nc2cc(F)c(S(=O)(=O)Nc3cncnc3)cc2Cl)C1 (stereo not drawn),> 10000 nM
23,CNC1CCN(c2cc(OC)ccc2Nc2cc(F)c(S(=O)(=O)Nc3cscn3)cc2Cl)C1 (stereo not drawn),> 10000 nM
24,CNC1CCN(c2ccccc2Nc2ccc(S(=O)(=O)Nc3cscn3)cc2)C1 (stereo not drawn),> 10000 nM
25,CNC1CCN(c2cc(Cl)ccc2Nc2cc(F)c(S(=O)(=O)Nc3cscn3)cc2Cl)C1 (stereo not drawn),> 10000 nM
26,CNCCN(C)c1cc(F)ccc1Nc1cc(F)c(S(=O)(=O)Nc2ncc(Cl)s2)cc1Cl,5540 nM
27,CNC1CCN(c2cc(F)ccc2Nc2cc(F)c(S(=O)(=O)Nc3ncc(F)cn3)cc2Cl)C1 (stereo not drawn),> 10000 nM
28,CNCCN(C)c1cc(C#N)ccc1Nc1cc(F)c(S(=O)(=O)Nc2ccc(F)cn2)cc1Cl,> 10000 nM
29,CNCCN(C)c1cc(C(F)(F)F)ccc1Nc1cc(F)c(S(=O)(=O)Nc2cscn2)cc1Cl,8200 nM

# Assay: as §1
# Format: cell-based
row,SMILES,IC50
1,CNC1CCN(c2cc(F)ccc2Nc2cc(F)c(S(=O)(=O)Nc3ccncn3)cc2Cl)C1 (stereo not drawn),250 nM
2,CNCCN(C)c1cc(C(F)(F)F)ccc1Nc1cc(F)c(S(=O)(=O)Nc2ncc(F)cn2)cc1Cl,60 nM
3,CNC1CCN(c2cc(F)ccc2Nc2cc(F)c(S(=O)(=O)Nc3ncns3)cc2Cl)C1 (stereo not drawn),1400 nM
4,CNC1CCN(c2cc(F)ccc2Nc2cc(F)c(S(=O)(=O)Nc3ccn(C)n3)cc2Cl)C1 (stereo not drawn),390 nM
5,C[C@@H]1CNCCN1c1cc(Cl)ccc1Nc1cc(F)c(S(=O)(=O)Nc2cscn2)cc1Cl,103 nM
6,CNC1CCN(c2c(F)cccc2Nc2cc(F)c(S(=O)(=O)Nc3cscn3)cc2Cl)C1 (stereo not drawn),86 nM
7,CNCCN(C)c1cc(C#N)ccc1Nc1cc(F)c(S(=O)(=O)Nc2cscn2)cc1Cl,120 nM
8,CN[C@@H]1CCCN(c2cc(F)ccc2Nc2ccc(S(=O)(=O)Nc3cscn3)cc2Cl)C1,49 nM
9,CNC1CCN(c2cc(F)ccc2Nc2cc(F)c(S(=O)(=O)Nc3cc(C)on3)cc2Cl)C1 (stereo not drawn),360 nM
10,CNCCN(C)c1cc(F)ccc1Nc1cc(F)c(S(=O)(=O)Nc2ncc(C)s2)cc1Cl,50 nM
11,CNCCN(C)c1cc(C#N)ccc1Nc1cc(F)c(S(=O)(=O)Nc2ncc(F)cn2)cc1Cl,1090 nM
12,CN1CCN(c2cc(OC(F)(F)F)ccc2Nc2cc(F)c(S(=O)(=O)Nc3cscn3)cc2Cl)CC1,28 nM
13,CNC1CCN(c2ccccc2Nc2ccc(S(=O)(=O)Nc3cscn3)c(F)c2)C1 (stereo not drawn),53 nM
14,CNC1CCN(c2cc(C(F)(F)F)ccc2Nc2ccc(S(=O)(=O)Nc3cscn3)c(F)c2)C1 (stereo not drawn),58 nM
15,CNCCN(C)c1cc(F)ccc1Nc1cc(F)c(S(=O)(=O)Nc2ncco2)cc1Cl,360 nM
16,CN(C)CCN(C)c1cc(F)ccc1Nc1cc(F)c(S(=O)(=O)Nc2ncc(Cl)s2)cc1Cl,60 nM
17,CNC1CCN(c2ccccc2Nc2ccc(S(=O)(=O)Nc3cscn3)cc2Cl)C1 (stereo not drawn),13 nM
18,CNC1CCN(c2cc(F)ccc2Nc2ccc(S(=O)(=O)Nc3cscn3)cc2)C1 (stereo not drawn),396 nM
19,CNC1CCN(c2cc(F)ccc2Nc2cc(F)c(S(=O)(=O)Nc3cnccn3)cc2Cl)C1 (stereo not drawn),300 nM
20,CNCCN(C)c1ccccc1Nc1cc(F)c(S(=O)(=O)Nc2cscn2)cc1Cl,40 nM

row,SMILES,IC50
1,CN(C)CCN(C)c1ccccc1Nc1cc(F)c(S(=O)(=O)Nc2ncc(Cl)s2)cc1Cl,3670 nM
2,C[C@H]1CN(c2cc(Cl)ccc2Nc2cc(F)c(S(=O)(=O)Nc3cscn3)cc2Cl)CCN1,1500 nM
3,CNCCN(C)c1cc(F)ccc1Nc1cc(F)c(S(=O)(=O)Nc2ncc(F)s2)cc1Cl,9 nM
4,CN[C@@H]1CCCN(c2cc(F)ccc2Nc2cc(F)c(S(=O)(=O)Nc3cscn3)cc2Cl)C1,66 nM
5,CNCCN(C)c1cc(F)ccc1Nc1cc(F)c(S(=O)(=O)Nc2ccccn2)cc1Cl,110 nM
6,CNCCN(C)c1cc(F)ccc1Nc1cc(F)c(S(=O)(=O)Nc2nccs2)cc1Cl,20 nM
7,CNCCN(C)c1ccccc1Nc1cc(F)c(S(=O)(=O)Nc2cc(C(C)(C)C)on2)cc1Cl,> 10000 nM
8,CN(C)CCN(C)c1cc(F)ccc1Nc1cc(F)c(S(=O)(=O)Nc2nccs2)cc1Cl,240 nM
9,CNCCN(C)c1ccccc1Nc1cc(F)c(S(=O)(=O)Nc2ncc(F)cn2)cc1Cl,100 nM
10,CNC1CCN(c2cc(F)ccc2Nc2cc(F)c(S(=O)(=O)Nc3cncnc3)cc2Cl)C1 (stereo not drawn),> 10000 nM
11,CNC1CCN(c2cc(OC)ccc2Nc2cc(F)c(S(=O)(=O)Nc3cscn3)cc2Cl)C1 (stereo not drawn),12 nM
12,CNC1CCN(c2ccccc2Nc2ccc(S(=O)(=O)Nc3cscn3)cc2)C1 (stereo not drawn),51 nM
13,CNC1CCN(c2cc(Cl)ccc2Nc2cc(F)c(S(=O)(=O)Nc3cscn3)cc2Cl)C1 (stereo not drawn),26 nM
14,CNCCN(C)c1cc(F)ccc1Nc1cc(F)c(S(=O)(=O)Nc2cc(C(C)(C)C)on2)cc1Cl,190 nM
15,CNCCN(C)c1cc(F)ccc1Nc1cc(F)c(S(=O)(=O)Nc2ncc(Cl)s2)cc1Cl,8 nM
16,CNC1CCN(c2cc(F)ccc2Nc2cc(F)c(S(=O)(=O)Nc3ncc(F)cn3)cc2Cl)C1 (stereo not drawn),110 nM
17,CNCCN(C)c1cc(C#N)ccc1Nc1cc(F)c(S(=O)(=O)Nc2ccc(F)cn2)cc1Cl,230 nM
18,CNCCN(C)c1cc(C(F)(F)F)ccc1Nc1cc(F)c(S(=O)(=O)Nc2cscn2)cc1Cl,30 nM
19,CNCCN(C)c1ccccc1Nc1cc(F)c(S(=O)(=O)Nc2cc(C)[nH]n2)cc1Cl,> 10000 nM
